Results: patent US12186295B2, “Ophthalmic compositions containing a nitric oxide releasing prostamide” (NICOX S.A., priority 2018, dated 2025)

How the values were obtained:
[1] = Impagnatiello et al., cited from earlier work
[2] = Solubility in water and aqueous solutions; type: physicochemical; conditions: aqueous solution at pH 6.0 containing 0.5% (w/w) of macrogol 15-hydroxystearate (Kolliphor® HS15)

CCNC(=O)CCC/C=C\C[C@@H]1[C@@H](/C=C/[C@H](CCc2ccccc2)OC(=O)CCCCCO[N+](=O)[O-])[C@H](O)C[C@@H]1O [NCX 470, Hexanoic acid, 6-(nitrooxy)-, (1S,2E)-3-[(1R,2R,3S,5R)-2-[(2Z)-7-(ethylamino)-7-oxo-2-hepten-1-yl]-3,5-dihydroxycyclopentyl]-1-(2-phenylethyl)-2-propen-1-yl ester]
IOP-lowering efficacy versus equimolar doses of bimatoprost ([1]; British Journal of Pharmacology (2018), vehicle 0.25% Tween 80, 0.02% BAK, 2% glycerine, 0.1% EDTA): greater IOP-lowering efficacy
intra ocular pressure (IOP)-lowering agent ([1]; Invest Ophthalmol Vis Sci. 2015): effective
solubility [2]: 0.070 % (w/w)
